# Laboratory results as given in US12545659B2, “IRAK degraders and uses thereof” (Kymera Therapeutics, Inc., priority 2019, dated 2026).
# Target: T1, IRAK4 (Homo sapiens, UniProt Q9NWZ3)
# T1 construct: endogenous in cells; host or cells: OCI-LY10
# T1 sequence (Q9NWZ3 1-460): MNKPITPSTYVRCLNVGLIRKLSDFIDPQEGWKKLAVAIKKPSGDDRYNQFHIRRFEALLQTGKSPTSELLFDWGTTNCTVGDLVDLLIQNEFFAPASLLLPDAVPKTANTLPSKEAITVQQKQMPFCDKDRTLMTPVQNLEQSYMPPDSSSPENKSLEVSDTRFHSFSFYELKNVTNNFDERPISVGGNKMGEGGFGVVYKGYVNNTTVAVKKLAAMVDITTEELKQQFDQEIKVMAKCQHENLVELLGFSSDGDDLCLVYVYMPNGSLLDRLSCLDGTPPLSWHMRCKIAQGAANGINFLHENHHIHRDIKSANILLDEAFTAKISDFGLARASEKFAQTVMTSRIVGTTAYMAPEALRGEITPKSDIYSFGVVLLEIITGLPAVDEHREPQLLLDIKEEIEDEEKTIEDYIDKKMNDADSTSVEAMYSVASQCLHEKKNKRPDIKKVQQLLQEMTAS
# Assay: IRAK4 MSD Degradation in OCI-LY10
# Assay type: cell-based
# Conditions: OCI-LY10 cells, 4 hrs incubation, read-out: IRAK4 degradation in OCI-LY10 at 4 hrs: DC50
# Experimental: Degradation of IRAK4 in OCI-LY10 was quantitatively measured using Meso Scale Discovery technology. […] Compounds were then added to the assay plates with a final top concentration of 1 to 10 μM in a 1:3 dilution series with total of 8 doses. The assay plates were then incubated for 4 to 24 hours at 37° C. under 5% C02. […] To prepare MSD assay plates (Meso Scale Discovery Catalog number L15XA-3), the plates were coated with […] capture antibody (mouse Anti-IRAK4 antibody [2H9], ab119942) in PBS, at 40 μL/well. […] Cell lysates were then added to MSD assay plates and the plates were incubated at room temperature for 1 hour. The plates were then washed 3 times with 150 μL/well TBST buffer and 25 μL/well primary detection antibody (rabbit Anti-IRAK4 antibody [Y279], from Abcam. Catalog number ab32511, 1 μg/mL). The assay plates were then incubated at room temperature for 1 hour, washed 3 times with 150 μL/well TBST buffer and 25 μL/well secondary detection antibody, SULFO-TAG anti-rabbit antibody were added (anti rabbit antibody from Meso Scale Discovery, Catalog number R32AB-1, 1 μg/mL). The assay plates were then incubated at room temperature for 1 hour, washed 3 times with 150 μL/well TBST buffer, and 150 μL/well MSD reading buffer (Meso Scale Discovery catalog number R92TC-2) was added. The plates were then analyzed by a MSD reader (Meso Scale Discovery, Model Quick Plex SQ 120). The data was then analyzed by software Prism 7.0 from GraphPad and the dose-depended IRAK4 degradation were fit using a three-parameter logistic equation to calculate DC50.
# The letter codes for IRAK4 […] include: A (<0.05 μM); B (0.05-0.1 μM); C (0.1-0.5 μM); D (0.5-1.0 μM); and E (>1.0 μM).
row,Compound,DC50 [nM]
1,COc1cc2nn([C@H]3CC[C@H](CN4CCC(c5cccc6c5n(C)c(=O)n6C5CCC(=O)NC5=O)CC4)CC3)cc2cc1NC(=O)c1cccc(C(F)(F)F)n1 (some centres unmarked) [I-110],< 50
2,COc1cc2nn([C@H]3CC[C@H](CN4C[C@H]5C[C@@H]4CN5c4cccc5c4n(C)c(=O)n5C4CCC(=O)NC4=O)CC3)cc2cc1NC(=O)c1cccc(C(F)(F)F)n1 (some centres unmarked) [I-281],< 50
3,CN(C[C@H]1CC[C@H](n2cc3cc(NC(=O)c4ccccn4)c(C(C)(C)O)cc3n2)CC1)C1CCN(c2ccc3c(c2)n(C2CCC(=O)NC2=O)c(=O)n3C)CC1 (some centres unmarked) [I-86],500 to 1000
4,CN(C[C@H]1CC[C@H](n2cc3cc(NC(=O)c4cnn5cccnc45)c(C(C)(C)O)cc3n2)CC1)C1CCN(Cc2cccc3c2n(C)c(=O)n3C2CCC(=O)NC2=O)CC1 (some centres unmarked) [I-50],< 50
5,COc1cc2nn([C@H]3CC[C@H](CN4CCC(c5cccc6c5n(C)c(=O)n6C5CCC(=O)NC5=O)CC4)CC3)cc2cc1NC(=O)c1coc(C)n1 (some centres unmarked) [I-325],< 50
6,CN(CCCO[C@H]1C[C@H](Cc2cccc3c2n(C)c(=O)n3C2CCC(=O)NC2=O)C1)C[C@H]1CC[C@H](n2cc3cc(NC(=O)c4cccc(C(F)(F)F)n4)c(C(C)(C)O)cc3n2)CC1 (some centres unmarked) [I-85],< 50
7,CN(C[C@H]1CC[C@H](n2cc3cc(NC(=O)c4cccc(C(F)(F)F)n4)c(N4C[C@@H]5C[C@H]4CO5)cc3n2)CC1)C1CCN(c2cccc3c2n(C)c(=O)n3C2CCC(=O)NC2=O)CC1 (some centres unmarked) [I-179],< 50
8,COc1cc2nn([C@H]3CC[C@H](CN4CCC5(CC4)CN(Cc4cccc6c4n(C)c(=O)n6C4CCC(=O)NC4=O)CCO5)CC3)cc2cc1NC(=O)c1cccc(C(F)(F)F)n1 (some centres unmarked) [I-289],50 to 100
9,COc1cc2nn([C@H]3CC[C@H](CN4CCN(CCc5cccc6c5n(C)c(=O)n6C5CCC(=O)NC5=O)CC4)CC3)cc2cc1NC(=O)c1cccc(C(F)(F)F)n1 (some centres unmarked) [I-96],< 50
10,"Cn1c(=O)n(C2CCC(=O)NC2=O)c2cccc([C@H]3CC[C@@H](N(C)C[C@H]4CC[C@H](n5cc6cc(NC(=O)c7cccc(C(F)(F)F)n7)c(C(F)F)cc6n5)CC4)CC3)c21 (single isomer, unassigned) [I-165, N-[6-(difluoromethyl)-2-[4-[[[4-[1-(2,6-dioxo-3-piperidyl)-3-methyl-2-oxo-benzimidazol-4-yl]cyclohexyl]-methyl-amino]methyl]cyclohexyl]indazol-5-yl]-6-(trifluoromethyl)pyridine-2-carboxamide]",< 50
11,Cc1cccc(C(=O)Nc2cc3cn([C@H]4CC[C@H](CN(C)C5CCN(Cc6cccc7c6n(C)c(=O)n7C6CCC(=O)NC6=O)CC5)CC4)nc3cc2C(C)(C)O)n1 (some centres unmarked) [I-48],< 50
12,Cn1c(=O)n(C2CCC(=O)NC2=O)c2cccc(NCC3CC4(CCN(C[C@H]5CC[C@H](n6cc7cc(NC(=O)c8cccc(C(F)(F)F)n8)c(C(C)(C)O)cc7n6)CC5)CC4)C3)c21 (some centres unmarked) [I-166],< 50
13,"CN(CCCC#Cc1cccc2c1n(C)c(=O)n2C1CCC(=O)NC1=O)C[C@H]1CC[C@H](n2cc3cc(NC(=O)c4cccc(C(F)(F)F)n4)c(C(C)(C)O)cc3n2)CC1 (some centres unmarked) [I-228, N-(2-((1r,4r)-4-(((5-(1-(2,6-dioxopiperidin-3-yl)-3-methyl-2-oxo-2,3-dihydro-1H-benzo[d]imidazol-4-yl)pent-4-yn-1-yl)(methyl)amino)methyl)cyclohexyl)-6-(2-hydroxypropan-2-yl)-2H-indazol-5-yl)-6-(trifluoromethyl)picolinamide]",< 50
14,Cn1c(=O)n(C2CCC(=O)NC2=O)c2cccc(C3CN(C[C@H]4CC[C@H](n5cc6cc(NC(=O)c7cccc(C(C)(C)F)n7)c(C(F)F)cc6n5)CC4)C3)c21 (some centres unmarked) [I-113],50 to 100
15,Cn1c(=O)n(C2CCC(=O)NC2=O)c2cccc(N3C[C@H]4C[C@@H]3CN4C[C@H]3CC[C@H](n4cc5cc(NC(=O)c6cccc(C(F)(F)F)n6)c(C(C)(C)O)cc5n4)CC3)c21 (some centres unmarked) [I-282],< 50

# Continued, values first:
row,DC50 [nM],Compound
1,50 to 100,COc1cccc(C(=O)Nc2cc3cn([C@H]4CC[C@H](CN5CCC6(CC5)CC(CCc5cccc7c5n(C)c(=O)n7C5CCC(=O)NC5=O)C6)CC4)nc3cc2C(C)(C)O)n1 (some centres unmarked) [I-207]
2,50 to 100,Cn1c(=O)n(C2CCC(=O)NC2=O)c2cccc(CCC3CC4(CCN(C[C@H]5CC[C@H](n6cc7cc(NC(=O)c8ccccn8)c(C(C)(C)O)cc7n6)CC5)CC4)C3)c21 (some centres unmarked) [I-81]
3,< 50,COc1cc2nn([C@H]3CC[C@H](CN4CC(c5ccc6c(c5)n(C)c(=O)n6C5CCC(=O)NC5=O)C4)CC3)cc2cc1NC(=O)c1cccc(C(F)(F)F)n1 (some centres unmarked) [I-260]
4,< 50,Cn1c(=O)n(C2CCC(=O)NC2=O)c2cccc(N3CCN(C[C@H]4CC[C@H](n5cc6cc(NC(=O)c7cccc(C(F)(F)F)n7)c(C(F)F)cc6n5)CC4)CC3)c21 (some centres unmarked) [I-176]

# Same assay, conditions: OCI-LY10 cells, 24 hrs incubation, read-out: IRAK4 degradation in OCI-LY10 at 24 hrs: DC50
row,Compound,DC50 [nM]
1,COc1cc2nn([C@H]3CC[C@H](CN4CCC5(CC4)CC(CNc4cccc6c4C(=O)N(C4CCC(=O)NC4=O)C6=O)C5)CC3)cc2cc1NC(=O)c1ccccn1 (some centres unmarked) [I-273],50 to 100
2,CC(C)(O)c1cc2nc(N3CCC(CN4CCC5(CC4)CC(CCNc4cccc6c4C(=O)N(C4CCC(=O)NC4=O)C6=O)C5)CC3)oc2cc1NC(=O)c1cccc(C(F)(F)F)n1 (centres unmarked) [I-197],500 to 1000
3,COc1cc2nn([C@H]3CC[C@H](CN(C)CCCN4CCOC(CNc5cccc6c5C(=O)N(C5CCC(=O)NC5=O)C6=O)C4)CC3)cc2cc1NC(=O)c1cccc(C(C)(F)F)n1 (some centres unmarked) [I-91],50 to 100
4,COc1cc2nn([C@H]3CC[C@H](CN4CCC5(CC4)CC(CNc4cccc6c4C(=O)N(C4CCC(=O)NC4=O)C6=O)C5)CC3)cc2cc1NC(=O)c1cccc(C(F)F)n1 (some centres unmarked) [I-209],< 50
5,COc1cc2nn([C@H]3CC[C@H](CN4CCC5(CC4)CC(CCNc4cccc6c4C(=O)N(C4CCC(=O)NC4=O)C6=O)C5)CC3)cc2cc1NC(=O)[C@H]1CCCCO1 (some centres unmarked) [I-142],500 to 1000
6,COc1cc2nn([C@H]3CC[C@H](CN4CCC(CO[C@H]5C[C@H](Nc6cccc7c6C(=O)N(C6CCC(=O)NC6=O)C7=O)C5)CC4)CC3)cc2cc1NC(=O)c1cccc(C(C)(C)F)n1 (some centres unmarked) [I-140],50 to 100
7,CC(C)(O)c1cc2nn([C@H]3CC[C@H](CN4CCC(O[C@H]5C[C@H](Nc6cccc7c6C(=O)N(C6CCC(=O)NC6=O)C7=O)C5)CC4)CC3)cc2cc1NC(=O)c1cccc(C(F)(F)F)n1 (some centres unmarked) [I-312],< 50

# Results, then the compound that gave them:
row,DC50 [nM],Compound
1,50 to 100,"COc1cc2nn([C@H]3CC[C@H](CN4CCC5(CC4)CC(CNc4cccc6c4C(=O)N([C@@H]4CCC(=O)NC4=O)C6=O)C5)CC3)cc2cc1NC(=O)c1cccc(C(F)(F)F)n1 [I-130, N-[2-[4-[[2-[[[2-[(3R)-2,6-dioxo-3-piperidyl]-1,3-dioxo-isoindolin-4-yl]amino]methyl]-7-azaspiro[3.5]nonan-7-yl]methyl]cyclohexyl]-6-methoxy-indazol-5-yl]-6-(trifluoromethyl)pyridine-2-carboxamide]"
2,100 to 500,COc1cc2nc([C@H]3CC[C@H](CN4CC5(CC(CCNc6cccc7c6C(=O)N(C6CCC(=O)NC6=O)C7=O)C5)C4)CC3)oc2cc1NC(=O)c1cccc(C(F)(F)F)n1 (some centres unmarked) [I-180]
3,50 to 100,CC(C)(O)c1cc2nn([C@H]3CC[C@H](CN4CCC(O[C@H]5C[C@H](Nc6cccc7c6C(=O)N(C6CCC(=O)NC6=O)C7=O)C5)CC4)CC3)cc2cc1NC(=O)c1cccc(C(C)(C)F)n1 (some centres unmarked) [I-234]
4,< 50,"CC(C)(O)c1cc2nn([C@H]3CC[C@H](CN4CCC5(CC4)CC(Nc4cccc6c4C(=O)N(C4CCC(=O)NC4=O)C6=O)C5)CC3)cc2cc1NC(=O)c1cccc(C(F)(F)F)n1 (some centres unmarked) [I-35, N-[2-[4-[[2-[[2-(2,6-dioxo-3-piperidyl)-1,3-dioxo-isoindolin-4-yl]amino]-7-azaspiro [3.5]nonan-7-yl]methyl]cyclohexyl]-6-(1-hydroxy-1-methyl-ethyl)indazol-5-yl]-6-(trifluoromethyl)pyridine-2-carboxamide]"
5,50 to 100,COc1cc2nn([C@H]3CC[C@H](CN4CCC(O[C@H]5CC[C@H](CNc6cccc7c6C(=O)N(C6CCC(=O)NC6=O)C7=O)CC5)CC4)CC3)cc2cc1NC(=O)c1cccc(C(F)(F)F)n1 (some centres unmarked) [I-69]
6,50 to 100,COc1cc2c(cc1NC(=O)c1cccc(C(F)(F)F)n1)CN([C@H]1CC[C@H](CN3CC4(CC(CCNc5cccc6c5C(=O)N(C5CCC(=O)NC5=O)C6=O)C4)C3)CC1)C2=O (some centres unmarked) [I-331]
